In publication PMC6019134, “1,2,6-Thiadiazinones as Novel Narrow Spectrum Calcium/Calmodulin-Dependent Protein Kinase Kinase 2 (CaMKK2) Inhibitors” (Molecules : A Journal of Synthetic Chemistry and Natural …, 2018) one finds ΔTm data, which are given here for five molecules.

Read-outs that look alike come from different tables or passages of the source.

What all share (assay): DSF thermal shift, kinase panel
Common to all, as to assay type: binding

The target of one test is T1, CSNK2A1 (Homo sapiens, UniProt P68400).
T1 construct: purchased in-house (home-made panel, SGC-style construct names)
The conditions noted are these: read-out: ΔTm. An outline of the steps:
(§1)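 Compounds were screened at 10 µM by differential scanning fluorimetry against 1 µM purified kinase in buffered glycerol/NaCl with fluorescent dye. Melting curves, recorded during a 0.05 °C/s ramp to 95 °C, were fitted to a Boltzmann function to give dTm.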

The next test addresses T2, GAKA (Homo sapiens, UniProt O14976).
T2 construct: purchased in-house (home-made panel, SGC-style construct names)
T2 sequence (O14976 1-1311): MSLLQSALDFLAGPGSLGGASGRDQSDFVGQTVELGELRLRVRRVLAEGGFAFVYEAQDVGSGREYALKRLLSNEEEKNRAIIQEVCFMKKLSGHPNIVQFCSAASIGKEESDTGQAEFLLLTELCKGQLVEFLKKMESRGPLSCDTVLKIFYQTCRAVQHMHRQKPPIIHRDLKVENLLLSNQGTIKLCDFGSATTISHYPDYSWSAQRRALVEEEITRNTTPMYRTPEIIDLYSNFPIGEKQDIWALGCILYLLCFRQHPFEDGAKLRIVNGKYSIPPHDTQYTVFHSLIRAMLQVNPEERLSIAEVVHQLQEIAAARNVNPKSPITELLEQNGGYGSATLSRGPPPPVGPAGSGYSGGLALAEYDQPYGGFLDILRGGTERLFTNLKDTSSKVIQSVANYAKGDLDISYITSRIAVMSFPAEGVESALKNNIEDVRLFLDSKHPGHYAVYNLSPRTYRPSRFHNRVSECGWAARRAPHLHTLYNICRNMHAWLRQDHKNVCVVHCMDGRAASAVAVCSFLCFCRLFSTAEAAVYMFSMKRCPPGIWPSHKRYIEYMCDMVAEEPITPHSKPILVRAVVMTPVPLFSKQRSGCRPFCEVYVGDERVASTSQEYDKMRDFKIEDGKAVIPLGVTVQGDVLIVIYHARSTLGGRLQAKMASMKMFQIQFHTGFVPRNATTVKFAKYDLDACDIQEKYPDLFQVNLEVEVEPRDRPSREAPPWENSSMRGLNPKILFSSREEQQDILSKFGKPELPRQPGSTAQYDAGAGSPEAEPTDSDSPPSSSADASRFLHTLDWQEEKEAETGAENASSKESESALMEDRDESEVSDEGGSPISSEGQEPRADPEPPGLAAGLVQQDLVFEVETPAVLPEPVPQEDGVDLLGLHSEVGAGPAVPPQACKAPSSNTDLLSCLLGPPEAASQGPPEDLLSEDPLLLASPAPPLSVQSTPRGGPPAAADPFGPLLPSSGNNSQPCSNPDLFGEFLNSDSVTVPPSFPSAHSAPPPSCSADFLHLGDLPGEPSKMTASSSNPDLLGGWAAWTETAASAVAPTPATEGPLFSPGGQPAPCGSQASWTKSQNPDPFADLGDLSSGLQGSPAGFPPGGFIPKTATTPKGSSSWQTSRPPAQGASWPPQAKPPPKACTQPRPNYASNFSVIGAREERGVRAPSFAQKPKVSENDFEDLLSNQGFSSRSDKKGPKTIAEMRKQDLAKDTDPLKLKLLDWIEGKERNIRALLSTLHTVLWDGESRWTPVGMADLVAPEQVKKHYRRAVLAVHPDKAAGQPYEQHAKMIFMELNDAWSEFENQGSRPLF
Conditions: 10 μM compound. An outline of the steps:
as §1

Another test has as its target T3, CSNK1G1 (Homo sapiens, UniProt Q9HCP0).
T3 construct: purchased in-house (home-made panel, SGC-style construct names)
Conditions: 10 μM compound. An outline of the steps:
as §1

For a further test, the target named is T4, PRPF4BA (Homo sapiens, UniProt Q13523).
T4 construct: purchased in-house (home-made panel, SGC-style construct names)
Conditions: 10 μM compound. The procedure, abridged:
as §1

The target in another test is T5, CAMK1G (Homo sapiens, UniProt Q96NX5).
T5 construct: purchased in-house (home-made panel, SGC-style construct names)
The conditions noted are these: 10 μM compound. The procedure, abridged: as §1

The target of a further test is T6, CDC42BPA (Homo sapiens, UniProt Q5VT25).
T6 construct: purchased in-house (home-made panel, SGC-style construct names)
Conditions: 10 μM compound. An outline of the steps: as §1

T1 sequence (P68400 whole entry): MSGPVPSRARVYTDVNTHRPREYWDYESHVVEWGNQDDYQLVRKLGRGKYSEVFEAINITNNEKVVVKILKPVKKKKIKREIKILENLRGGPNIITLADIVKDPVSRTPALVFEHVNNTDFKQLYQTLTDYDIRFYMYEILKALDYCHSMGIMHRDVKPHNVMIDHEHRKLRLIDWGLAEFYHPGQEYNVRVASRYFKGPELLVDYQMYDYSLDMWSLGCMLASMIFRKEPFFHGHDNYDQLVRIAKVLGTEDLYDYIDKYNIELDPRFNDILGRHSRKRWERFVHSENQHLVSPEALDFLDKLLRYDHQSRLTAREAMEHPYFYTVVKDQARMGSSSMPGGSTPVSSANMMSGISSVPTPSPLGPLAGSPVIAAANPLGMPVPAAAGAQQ
T3 sequence (Q9HCP0 whole entry): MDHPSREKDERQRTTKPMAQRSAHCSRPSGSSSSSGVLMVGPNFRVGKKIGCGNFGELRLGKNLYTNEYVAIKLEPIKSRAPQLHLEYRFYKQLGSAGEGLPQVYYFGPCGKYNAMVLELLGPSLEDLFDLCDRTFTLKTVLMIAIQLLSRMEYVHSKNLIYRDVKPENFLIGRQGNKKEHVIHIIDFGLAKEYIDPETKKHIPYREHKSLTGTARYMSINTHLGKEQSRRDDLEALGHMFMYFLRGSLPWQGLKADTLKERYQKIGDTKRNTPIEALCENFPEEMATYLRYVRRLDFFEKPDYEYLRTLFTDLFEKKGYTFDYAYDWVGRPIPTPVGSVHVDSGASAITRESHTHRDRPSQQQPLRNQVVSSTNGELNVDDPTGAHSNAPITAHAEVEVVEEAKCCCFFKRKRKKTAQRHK
T6 sequence (Q5VT25 whole entry): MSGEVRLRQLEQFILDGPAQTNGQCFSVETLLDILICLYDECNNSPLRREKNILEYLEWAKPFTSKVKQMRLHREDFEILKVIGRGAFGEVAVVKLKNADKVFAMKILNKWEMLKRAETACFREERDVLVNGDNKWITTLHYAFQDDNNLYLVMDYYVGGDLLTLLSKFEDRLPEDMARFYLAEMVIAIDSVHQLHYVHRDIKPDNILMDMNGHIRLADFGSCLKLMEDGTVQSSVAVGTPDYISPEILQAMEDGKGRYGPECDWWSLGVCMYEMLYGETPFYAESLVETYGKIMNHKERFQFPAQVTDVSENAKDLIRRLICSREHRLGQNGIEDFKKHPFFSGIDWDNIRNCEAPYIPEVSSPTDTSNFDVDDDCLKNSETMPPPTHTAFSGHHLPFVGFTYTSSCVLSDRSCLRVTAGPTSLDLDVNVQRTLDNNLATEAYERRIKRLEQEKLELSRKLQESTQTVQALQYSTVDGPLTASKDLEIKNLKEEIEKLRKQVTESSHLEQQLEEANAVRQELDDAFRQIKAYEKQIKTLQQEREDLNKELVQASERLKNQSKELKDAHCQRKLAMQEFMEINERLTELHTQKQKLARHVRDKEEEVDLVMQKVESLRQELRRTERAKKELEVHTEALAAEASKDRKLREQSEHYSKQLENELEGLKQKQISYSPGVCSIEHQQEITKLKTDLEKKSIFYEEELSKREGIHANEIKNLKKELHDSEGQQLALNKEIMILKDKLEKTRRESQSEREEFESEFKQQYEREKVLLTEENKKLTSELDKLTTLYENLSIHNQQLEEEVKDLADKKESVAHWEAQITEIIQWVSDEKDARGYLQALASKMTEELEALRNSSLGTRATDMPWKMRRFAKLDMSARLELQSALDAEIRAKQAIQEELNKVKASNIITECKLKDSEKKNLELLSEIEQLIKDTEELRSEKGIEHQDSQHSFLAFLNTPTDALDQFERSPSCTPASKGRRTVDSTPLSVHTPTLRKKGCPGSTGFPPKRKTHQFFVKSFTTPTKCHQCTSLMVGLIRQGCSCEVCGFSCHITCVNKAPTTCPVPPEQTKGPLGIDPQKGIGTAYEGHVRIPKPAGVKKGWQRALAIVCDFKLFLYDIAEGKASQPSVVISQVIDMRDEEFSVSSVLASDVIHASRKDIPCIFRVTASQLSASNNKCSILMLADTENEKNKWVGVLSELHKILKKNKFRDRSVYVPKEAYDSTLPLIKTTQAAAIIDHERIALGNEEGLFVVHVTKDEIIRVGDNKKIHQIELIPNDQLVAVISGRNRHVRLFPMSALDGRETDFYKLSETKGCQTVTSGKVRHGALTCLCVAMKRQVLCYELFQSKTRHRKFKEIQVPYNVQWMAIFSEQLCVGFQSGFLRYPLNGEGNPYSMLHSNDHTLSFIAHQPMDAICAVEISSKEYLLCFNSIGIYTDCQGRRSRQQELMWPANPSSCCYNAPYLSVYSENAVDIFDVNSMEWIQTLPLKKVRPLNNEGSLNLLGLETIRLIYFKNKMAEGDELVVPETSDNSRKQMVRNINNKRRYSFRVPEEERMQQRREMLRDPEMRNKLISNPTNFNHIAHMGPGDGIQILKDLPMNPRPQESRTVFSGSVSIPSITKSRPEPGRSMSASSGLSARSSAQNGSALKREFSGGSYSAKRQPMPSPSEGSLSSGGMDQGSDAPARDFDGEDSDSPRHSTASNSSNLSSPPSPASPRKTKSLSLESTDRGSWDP
T5 sequence (Q96NX5 whole entry): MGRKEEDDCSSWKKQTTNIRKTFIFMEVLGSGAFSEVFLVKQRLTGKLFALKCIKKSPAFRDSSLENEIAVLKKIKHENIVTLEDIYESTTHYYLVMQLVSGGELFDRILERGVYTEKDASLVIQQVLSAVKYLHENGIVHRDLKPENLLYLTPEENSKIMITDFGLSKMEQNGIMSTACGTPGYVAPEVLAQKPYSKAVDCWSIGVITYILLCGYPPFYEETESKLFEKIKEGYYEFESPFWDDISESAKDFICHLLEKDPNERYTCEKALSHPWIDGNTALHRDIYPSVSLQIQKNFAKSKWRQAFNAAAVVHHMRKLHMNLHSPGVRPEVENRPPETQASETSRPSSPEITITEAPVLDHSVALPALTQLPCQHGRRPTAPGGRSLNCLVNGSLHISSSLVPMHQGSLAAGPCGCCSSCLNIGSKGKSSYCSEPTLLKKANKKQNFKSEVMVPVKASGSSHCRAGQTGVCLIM
T4 sequence (Q13523 whole entry): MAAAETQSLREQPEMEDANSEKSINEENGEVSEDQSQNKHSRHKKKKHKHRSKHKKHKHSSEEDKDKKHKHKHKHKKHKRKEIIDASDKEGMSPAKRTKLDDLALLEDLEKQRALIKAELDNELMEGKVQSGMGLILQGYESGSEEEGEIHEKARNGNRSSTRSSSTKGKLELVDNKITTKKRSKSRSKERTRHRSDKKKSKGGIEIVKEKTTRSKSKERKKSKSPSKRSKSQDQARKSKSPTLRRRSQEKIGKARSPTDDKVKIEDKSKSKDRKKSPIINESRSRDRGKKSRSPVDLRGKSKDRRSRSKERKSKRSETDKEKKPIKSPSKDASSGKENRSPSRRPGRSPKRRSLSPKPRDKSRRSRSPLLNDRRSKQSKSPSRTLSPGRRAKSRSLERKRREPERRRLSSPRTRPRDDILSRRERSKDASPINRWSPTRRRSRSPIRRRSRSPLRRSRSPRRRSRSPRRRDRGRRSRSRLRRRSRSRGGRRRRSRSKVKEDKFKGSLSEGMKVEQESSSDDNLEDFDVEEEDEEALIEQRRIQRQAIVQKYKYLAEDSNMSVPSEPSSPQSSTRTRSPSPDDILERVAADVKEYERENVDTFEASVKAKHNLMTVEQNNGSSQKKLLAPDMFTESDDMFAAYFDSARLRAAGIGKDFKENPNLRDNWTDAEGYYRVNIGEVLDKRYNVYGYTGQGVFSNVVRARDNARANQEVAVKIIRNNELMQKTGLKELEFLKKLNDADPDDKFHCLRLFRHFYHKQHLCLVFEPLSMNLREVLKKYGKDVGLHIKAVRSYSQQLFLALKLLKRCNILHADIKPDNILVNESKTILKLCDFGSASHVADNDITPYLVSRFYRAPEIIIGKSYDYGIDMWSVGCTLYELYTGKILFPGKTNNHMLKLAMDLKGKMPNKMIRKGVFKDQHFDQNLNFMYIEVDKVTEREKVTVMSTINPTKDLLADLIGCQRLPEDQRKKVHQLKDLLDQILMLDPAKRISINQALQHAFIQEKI

In the case of `CNC(=O)c1ccccc1Nc1nsnc(Nc2cccc(CS(C)(=O)=O)c2)c1=O` [Compound 4, N-Methyl-2-([5-({3-[(methylsulfonyl)methyl]phenyl}amino)-4-oxo-4H-1,2,6-thiadiazin-3-yl]-amino}-benzamide], the ΔTm (commonly the shift of the melting midpoint relative to a reference) at 10 µM was -0.4 °C on CSNK2A1 (DSF, 10 μM compound); -0.4 °C on GAKA; 0.3 °C at CSNK1G1; 0.1 °C on PRPF4BA; 0.2 °C at CAMK1G; -0.8 °C on CDC42BPA.
Take `Cc1ccc(Nc2nsnc(Nc3cccc(C(N)=O)c3)c2=O)cc1O` [Compound 1, 3-({5-[(3-Hydroxy-4-methylphenyl)amino]-4-oxo-4H-1,2,6-thiadiazin-3-yl}amino)benzamide]: the ΔTm at 10 µM on CSNK2A1 (DSF, 10 μM compound) is -0.9 °C; at GAKA it was -0.3 °C; on CSNK1G1, -0.6 °C; on PRPF4BA, 0.7 °C; at CAMK1G, 1.8 °C; at CDC42BPA it was 0.3 °C.
For `CNC(=O)c1ccccc1Nc1nsnc(Nc2ccc(N3CCOCC3)cc2)c1=O` [Compound 5, N-Methyl-2-({5-[(4-morpholinophenyl)amino]-4-oxo-4H-1,2,6-thiadiazin-3-yl}amino)benzamide], the ΔTm at 10 µM at CSNK2A1 (DSF, 10 μM compound) was -0.4 °C; at GAKA, -0.4 °C; at CSNK1G1 it was 0 °C; on PRPF4BA, 0.1 °C; on CAMK1G, 0.1 °C; on CDC42BPA, -0.6 °C.
On to `Cc1ccc(Nc2nsnc(Nc3ccc4c(c3)CS(=O)(=O)C4)c2=O)cc1O` [Compound 3, 3-[(2,2-Dioxido-1,3-dihydrobenzo[c]thiophen-5-yl)amino]-5-[(3-hydroxy-4-methylphenyl)amino]-4H-1,2,6-thiadiazin-4-one], for which the ΔTm at 10 µM at CSNK2A1 (DSF, 10 μM compound) is -0.6 °C; on GAKA, 0 °C; at CSNK1G1 it was -0.7 °C; at PRPF4BA, 0.6 °C; on CAMK1G it was 3 °C; on CDC42BPA, 2.3 °C.
Take `Cc1ccc(Nc2nsnc(Nc3ccc(C(N)=O)cc3)c2=O)cc1O` [Compound 2, 4-({5-[(3-Hydroxy-4-methylphenyl)amino]-4-oxo-4H-1,2,6-thiadiazin-3-yl}amino)benzamide]: the ΔTm at 10 µM is -0.2 °C on CSNK2A1; 1.4 °C at GAKA; -1 °C at CSNK1G1; 0.1 °C on PRPF4BA; 3.3 °C at CAMK1G; 4.8 °C at CDC42BPA.
